From patent US20110212199A1, “AGENT FOR TREATING EYE DISEASES” (priority 2003, published 2011)

How the values were obtained:
Assay type in all cases: in vivo, human
[1] = system: Posner-Schlossmans' Syndrome; experiment: Example 21: Posner-Schlossmans' Syndrome
[2] = system: photopsia; experiment: Example 28: photopsia; conditions: person; 10 mg/l, 1 drop (50 μl) once a day for 3 weeks
[3] = system: presbyopia; experiment: Example 12: presbyopia, near point; conditions: for near point, left eye: before 29 cm
Method: The patient is person of presbyopia having slight myopia of −2.5 dioptre and −1.0D of astigmatism. When a near point of the left eye of the patient was measured without lens correction, it was 29 cm. Water-soluble 17β-estradiol inclusion product (Cyclodextrin-encapsulated 17β-estradiol available from SIGMA CO. […] To the patient was dropped 1 drop (25 μl) of eye drops at 9 AM per each eye. […] Incidentally, the far point was 41±2 cm in average.

[4] = system: normal tension glaucoma; experiment: Example 9: normal tension glaucoma patient
Method: The patient is person diagnosed as normal tension glaucoma. Water-soluble 17β-estradiol inclusion product (Cyclodextrin-encapsulated 17β-estradiol available from SIGMA CO. […] To the above-mentioned patient, 1 drop (25 μl) of eye drops was dropped per one eye once every morning for 10 days.

[5] = system: corneal endothelial cells; experiment: Example 27: regeneration and protection of corneal endothelial cells; conditions: 10 days
Text: As a measurement device, NONCON ROBO (KONAN INC) specular microscope was used.

`C[C@]12CC[C@@H]3c4ccc(O)cc4CC[C@H]3[C@@H]1CC[C@@H]2O` [17β-estradiol] was tested, and the iritis ([1]; after 1 week) was “iritis disappeared”, the “intraocular pressure Tos” value ([1]; patient, left eye, 1 mg/l, 1 drop (50 μl) once a day for 1 week, before 36) was 17 mmHg and the photopsia symptom [2] was “the symptom was lightened”. For the same molecule, the “near point, left eye” value ([3]; after 3 hours) was 24 cm, the “far point, average” value ([3]; in vivo) was 41±2 cm and the “maximum improvement in refraction (near point)” value ([3]; in vivo) was 5 cm. For the same molecule, the “near point, left eye” value ([3]; person, 100 mg/l, 1 drop (25 μl), after 1 hour) was 27 cm, the “visual field by Octopus 1-2-3” value ([4]; after 10 days) was “both eyes extremely well improved” and the “intraocular pressure, left” value ([4]; after 10 days, before 12) was 9 mmHg. The “intraocular pressure, right” value ([4]; person, 100 mg/l, 1 drop (25 μl) every morning for 10 days, before 14) was 12 mmHg, the “number of left eye endothelial cells” value ([5]; before 2906) was 3496 per mm^2 and the number of right eye endothelial cells ([5]; person, 1 mg/l, 1 drop (50 μl) once a day, before 2801) was 3410 cells/mm².
